These results are taken from patent publication US20260070945A1, “MACROCYCLIC IMMUNOMODULATORS” (Bristol-Myers Squibb Company, priority 2022, published 2026).

Where a SMILES comes first, the peptide text is derived from it. Bridges are numbered along the chain shown (N, C = ends). [ ]: non-standard residue; d: D form. The star is where a group is joined. ξ: configuration not given here. Phe(3-CF3) = N[C@@H](Cc1cccc(C(F)(F)F)c1)C(=O)O; Phe(4-COOH) = N[C@@H](Cc1ccc(C(=O)O)cc1)C(=O)O; Bip = N[C@@H](Cc1ccc(-c2ccccc2)cc1)C(=O)O; Phe(3-Me) = Cc1cccc(C[C@H](N)C(=O)O)c1; Phe(4-F) = N[C@@H](Cc1ccc(F)cc1)C(=O)O; NH(CH2)12COOH = O=C(O)CCCCCCCCCCCCN*; Val(3-OH) = CC(C)(O)[C@H](N)C(=O)O; Cha = N[C@@H](CC1CCCCC1)C(=O)O; Thr(3ξ) = CC(O)[C@H](N)C(=O)O; Carboxymethyl = O=C(O)C*; NMeA = CN[C@@H](C)C(=O)O; Aun = NCCCCCCCCCCC(=O)O; Dab = NCC[C@H](N)C(=O)O; Nva = CCC[C@H](N)C(=O)O; AEEA = NCCOCCOCC(=O)O

T1 sequence (Q15116 25-288): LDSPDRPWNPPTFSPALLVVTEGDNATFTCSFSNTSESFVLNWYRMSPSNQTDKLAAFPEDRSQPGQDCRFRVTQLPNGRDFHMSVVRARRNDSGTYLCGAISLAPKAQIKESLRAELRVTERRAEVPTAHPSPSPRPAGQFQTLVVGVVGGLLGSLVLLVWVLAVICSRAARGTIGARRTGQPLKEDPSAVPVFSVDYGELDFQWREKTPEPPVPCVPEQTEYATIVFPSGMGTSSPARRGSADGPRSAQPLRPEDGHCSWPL

The assay concerns the target T1, PD-1/PD-L1 interaction (PE-labeled human PD-L1-Ig binding to Jurkat cell line over-expressing human PD-1) (Homo sapiens, UniProt Q15116).
T1 construct: expressed in transfected cells; host or cells: Jurkat
Kind of assay: Jurkat-PD-1 Cell Binding High-Content Screening Assay (CBA). Conditions: PE-labeled PD-L1-Ig 20 nM final, Jurkat-hPD-1 cells; read-out: Jurkat HPD1 PDL1 IC50. A digest of the protocol:
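In this imaging assay, cells in 10% FCS medium see compound for 2 h at 37 °C and then labeled ligand at 20 nM final for 1 h. Paraformaldehyde fixation, Hoechst 33342 staining and dPBS washes precede image capture.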
Turning to `Cc1cccc(C[C@@H]2NC(=O)[C@H](CC(=O)O)NC(=O)[C@H](Cc3ccc(C(=O)O)cc3)NC(=O)[C@H](CCN)NC(=O)CSC[C@@H](C(=O)N[C@@H](CCN)C(=O)NCCCCCCCCCCC(=O)O)NC(=O)[C@H](Cc3cnc[nH]3)NC(=O)[C@H](C(C)(C)O)NC(=O)[C@H](CC3CCCCC3)NC(=O)[C@H](CCN)NC(=O)[C@@H](CC(C)C)NC(=O)[C@H](C)N(C)C(=O)[C@H](Cc3ccc(C(=O)O)cc3)NC(=O)[C@H](Cc3ccc(-c4ccccc4)cc3)NC(=O)[C@H](Cc3ccc(C(=O)O)cc3)NC2=O)c1` [Example 2554] ({CH2CO}-[Dab][Phe(4-COOH)]D[Phe(3-Me)][Phe(4-COOH)][Bip][Phe(4-COOH)][NMeA][dL][Dab][Cha][Val(3-OH)]HC[Dab][Aun]-OH; thioether N-14), the IC50 worked out at 8.6 nM.
The value for `Cc1cccc(C[C@@H]2NC(=O)[C@H](CC(=O)O)NC(=O)[C@H](Cc3ccc(C(=O)O)cc3)NC(=O)[C@H](C(C)O)NC(=O)CSC[C@@H](C(=O)N[C@@H](CCN)C(=O)NCCOCCOCC(=O)NCCCCCCCCCCC(=O)O)NC(=O)[C@H](CCC(=O)O)NC(=O)[C@H](C(C)O)NC(=O)[C@H](CC3CCCCC3)NC(=O)[C@H](CCN)NC(=O)[C@@H](CC(C)C)NC(=O)[C@H](C)N(C)C(=O)[C@H](Cc3ccc(C(=O)O)cc3)NC(=O)[C@H](Cc3ccc(-c4ccccc4)cc3)NC(=O)[C@H](Cc3ccc(C(=O)O)cc3)NC2=O)c1` (stereo partly drawn) [Example 2555] ({CH2CO}-[Thr(3ξ)][Phe(4-COOH)]D[Phe(3-Me)][Phe(4-COOH)][Bip][Phe(4-COOH)][NMeA][dL][Dab][Cha][Thr(3ξ)]EC[Dab][AEEA][Aun]-OH; thioether N-14) was 20.2 nM; that for `Cc1cccc(C[C@@H]2NC(=O)[C@H](CC(=O)O)NC(=O)[C@H](Cc3ccc(C(=O)O)cc3)NC(=O)[C@H](C(C)O)NC(=O)CSC[C@@H](C(=O)N[C@@H](CCN)C(=O)NCCOCCOCC(=O)NCCCCCCCCCCC(=O)O)NC(=O)[C@H](CCC(=O)O)NC(=O)[C@H](CO)NC(=O)[C@H](CC3CCCCC3)NC(=O)[C@H](CCN)NC(=O)[C@@H](CC(C)C)NC(=O)[C@H](C)N(C)C(=O)[C@H](Cc3ccc(C(=O)O)cc3)NC(=O)[C@H](Cc3ccc(-c4ccccc4)cc3)NC(=O)[C@H](Cc3ccc(C(=O)O)cc3)NC2=O)c1` (stereo partly drawn) [Example 2556] ({CH2CO}-[Thr(3ξ)][Phe(4-COOH)]D[Phe(3-Me)][Phe(4-COOH)][Bip][Phe(4-COOH)][NMeA][dL][Dab][Cha]SEC[Dab][AEEA][Aun]-OH; thioether N-14) was 41.2 nM; that for `Cc1cccc(C[C@@H]2NC(=O)[C@H](CC(=O)O)NC(=O)[C@H](Cc3ccc(C(=O)O)cc3)NC(=O)[C@H](C(C)O)NC(=O)CSC[C@@H](C(=O)N[C@@H](CCN)C(=O)NCCOCCOCC(=O)NCCCCCCCCCCC(=O)O)NC(=O)[C@H](CC(=O)O)NC(=O)[C@H](C(C)C)NC(=O)[C@H](CC3CCCCC3)NC(=O)[C@H](CCN)NC(=O)[C@@H](CC(C)C)NC(=O)[C@H](C)N(C)C(=O)[C@H](Cc3ccc(C(=O)O)cc3)NC(=O)[C@H](Cc3ccc(-c4ccccc4)cc3)NC(=O)[C@H](Cc3ccc(C(=O)O)cc3)NC2=O)c1` (stereo partly drawn) [Example 2557] ({CH2CO}-[Thr(3ξ)][Phe(4-COOH)]D[Phe(3-Me)][Phe(4-COOH)][Bip][Phe(4-COOH)][NMeA][dL][Dab][Cha]VDC[Dab][AEEA][Aun]-OH; thioether N-14) was 0.7 nM.
The value for `Cc1cccc(C[C@@H]2NC(=O)[C@H](CC(=O)O)NC(=O)[C@H](Cc3ccc(OCC(=O)O)cc3)NC(=O)[C@H](C(C)O)NC(=O)CSC[C@@H](C(=O)N[C@@H](CCN)C(=O)NCCOCCOCC(=O)NCCCCCCCCCCC(=O)O)NC(=O)[C@H](CC(=O)O)NC(=O)[C@H](C(C)C)NC(=O)[C@H](CC3CCCCC3)NC(=O)[C@H](CCN)NC(=O)[C@@H](CC(C)C)NC(=O)[C@H](C)N(C)C(=O)[C@H](Cc3ccc(OCC(=O)O)cc3)NC(=O)[C@H](Cc3ccc(-c4ccccc4)cc3)NC(=O)[C@H](Cc3ccc(OCC(=O)O)cc3)NC2=O)c1` (stereo partly drawn) [Example 2558] ({CH2CO}-[Thr(3ξ)]Y(Carboxymethyl)D[Phe(3-Me)]Y(Carboxymethyl)[Bip]Y(Carboxymethyl)[NMeA][dL][Dab][Cha]VDC[Dab][AEEA][Aun]-OH; thioether N-14) was 11.6 nM; that for `Cc1cccc(C[C@@H]2NC(=O)[C@H](CC(=O)O)NC(=O)[C@H](Cc3ccc(OCC(=O)O)cc3)NC(=O)[C@H](Cc3ccc(F)cc3)NC(=O)CSC[C@@H](C(=O)N[C@@H](CCN)C(=O)NCCOCCOCC(=O)NCCCCCCCCCCC(=O)O)NC(=O)[C@H](CC(=O)O)NC(=O)[C@H](C(C)C)NC(=O)[C@H](CC3CCCCC3)NC(=O)[C@H](CCN)NC(=O)[C@@H](CC(C)C)NC(=O)[C@H](C)N(C)C(=O)[C@H](Cc3ccc(OCC(=O)O)cc3)NC(=O)[C@H](Cc3ccc(-c4ccccc4)cc3)NC(=O)[C@H](Cc3ccc(OCC(=O)O)cc3)NC2=O)c1` [Example 2559] ({CH2CO}-[Phe(4-F)]Y(Carboxymethyl)D[Phe(3-Me)]Y(Carboxymethyl)[Bip]Y(Carboxymethyl)[NMeA][dL][Dab][Cha]VDC[Dab][AEEA][Aun]-OH; thioether N-14) was 28.6 nM.
With `Cc1cccc(C[C@@H]2NC(=O)[C@H](CC(=O)O)NC(=O)[C@H](Cc3ccc(OCC(=O)O)cc3)NC(=O)[C@H](Cc3ccc(F)cc3)NC(=O)CSC[C@@H](C(=O)N[C@@H](CCN)C(=O)NCCOCCOCC(=O)NCCCCCCCCCCC(=O)O)NC(=O)[C@H](CCC(=O)O)NC(=O)[C@H](C(C)C)NC(=O)[C@H](CC3CCCCC3)NC(=O)[C@H](CCN)NC(=O)[C@@H](CC(C)C)NC(=O)[C@H](C)N(C)C(=O)[C@H](Cc3ccc(OCC(=O)O)cc3)NC(=O)[C@H](Cc3ccc(-c4ccccc4)cc3)NC(=O)[C@H](Cc3ccc(OCC(=O)O)cc3)NC2=O)c1` [Example 2560] ({CH2CO}-[Phe(4-F)]Y(Carboxymethyl)D[Phe(3-Me)]Y(Carboxymethyl)[Bip]Y(Carboxymethyl)[NMeA][dL][Dab][Cha]VEC[Dab][AEEA][Aun]-OH; thioether N-14), the IC50 came out at 2.1 nM.
The value for `CCC[C@@H]1NC(=O)CSC[C@@H](C(=O)N[C@@H](CCN)C(=O)NCCOCCOCC(=O)NCCCCCCCCCCC(=O)O)NC(=O)[C@H](CCC(=O)O)NC(=O)[C@H](CO)NC(=O)[C@H](CC2CCCCC2)NC(=O)[C@H](CCN)NC(=O)[C@@H](CC(C)C)NC(=O)[C@H](C)N(C)C(=O)[C@H](Cc2ccc(OCC(=O)O)cc2)NC(=O)[C@H](Cc2ccc(-c3ccccc3)cc2)NC(=O)[C@H](Cc2ccc(OCC(=O)O)cc2)NC(=O)[C@H](Cc2cccc(C)c2)NC(=O)[C@H](CC(=O)O)NC(=O)[C@H](Cc2ccc(C(=O)O)cc2)NC1=O` [Example 2561] ({CH2CO}-[Nva][Phe(4-COOH)]D[Phe(3-Me)]Y(Carboxymethyl)[Bip]Y(Carboxymethyl)[NMeA][dL][Dab][Cha]SEC[Dab][AEEA][Aun]-OH; thioether N-14) was 24.1 nM; that for `Cc1cccc(C[C@@H]2NC(=O)[C@H](CC(=O)O)NC(=O)[C@H](Cc3ccc(C(=O)O)cc3)NC(=O)[C@H](C(C)O)NC(=O)CSC[C@@H](C(=O)N[C@@H](CCN)C(=O)NCCOCCOCC(=O)NCCCCCCCCCCC(=O)O)NC(=O)[C@H](CO)NC(=O)[C@H](C(C)(C)O)NC(=O)[C@H](CC3CCCCC3)NC(=O)[C@H](CCN)NC(=O)[C@@H](CC(C)C)NC(=O)[C@H](C)N(C)C(=O)[C@H](Cc3ccc(C(=O)O)cc3)NC(=O)[C@H](Cc3ccc(-c4ccccc4)cc3)NC(=O)[C@H](Cc3ccc(C(=O)O)cc3)NC2=O)c1` (stereo partly drawn) [Example 2562] ({CH2CO}-[Thr(3ξ)][Phe(4-COOH)]D[Phe(3-Me)][Phe(4-COOH)][Bip][Phe(4-COOH)][NMeA][dL][Dab][Cha][Val(3-OH)]SC[Dab][AEEA][Aun]-OH; thioether N-14) was 2.1 nM; that for `CC(=O)NCCCC[C@@H]1NC(=O)[C@H](C(C)(C)O)NC(=O)[C@H](CC2CCCCC2)NC(=O)[C@H](CCN)NC(=O)[C@@H](CC(C)C)NC(=O)[C@H](C)N(C)C(=O)[C@H](CCC(N)=O)NC(=O)[C@H](Cc2ccc(-c3ccccc3)cc2)NC(=O)[C@H](Cc2ccc(C(=O)O)cc2)NC(=O)[C@H](Cc2cccc(C)c2)NC(=O)[C@H](CC(=O)O)NC(=O)[C@H](Cc2ccc(OCC(=O)O)cc2)NC(=O)[C@H](Cc2ccc(OCC(=O)O)cc2)NC(=O)CSC[C@@H](C(=O)N[C@@H](CCN)C(=O)NCCCCCCCCCCCCC(=O)O)NC1=O` [Example 2563] ({CH2CO}-Y(Carboxymethyl)Y(Carboxymethyl)D[Phe(3-Me)][Phe(4-COOH)][Bip]Q[NMeA][dL][Dab][Cha][Val(3-OH)]K(Ac)C[Dab]-{NH(CH2)12COOH}; thioether N-14) was 4.6 nM.
The value for `CC(=O)NCCCC[C@@H]1NC(=O)[C@H](C(C)(C)O)NC(=O)[C@H](CC2CCCCC2)NC(=O)[C@H](CCN)NC(=O)[C@@H](CC(C)C)NC(=O)[C@H](C)N(C)C(=O)[C@H](CCC(N)=O)NC(=O)[C@H](Cc2ccc(-c3ccccc3)cc2)NC(=O)[C@H](Cc2ccc(C(=O)O)cc2)NC(=O)[C@H](Cc2cccc(C(F)(F)F)c2)NC(=O)[C@H](CC(=O)O)NC(=O)[C@H](Cc2ccc(OCC(=O)O)cc2)NC(=O)[C@H](Cc2ccc(OCC(=O)O)cc2)NC(=O)CSC[C@@H](C(=O)N[C@@H](CCN)C(=O)NCCCCCCCCCCC(=O)O)NC1=O` [Example 2564] ({CH2CO}-Y(Carboxymethyl)Y(Carboxymethyl)D[Phe(3-CF3)][Phe(4-COOH)][Bip]Q[NMeA][dL][Dab][Cha][Val(3-OH)]K(Ac)C[Dab][Aun]-OH; thioether N-14) was 1.1 nM.

In general, IC50 refers to the concentration that inhibits the measured activity by half.
